Experimental data from a compilation of properties of binary mixtures (doi:10.1016/j.molliq.2021.116463).

Experiment: xn = mol fraction of the nth substance listed
Conditions: 100 kPa

[Cl-].c1c[nH+]c[nH]1 + OCC(O)CO
viscosity [mPa·s]
Conditions	293.2 K	303.2 K	313.2 K	323.2 K	333.2 K	343.2 K	353.2 K
x1 = 0.1667	565	397	–	196	149.3	127.7	116.4
x1 = 0.25	429	294	207	–	60.9	37.7	24.8
x1 = 0.3333	321	219	–	–	49.6	31.2	20.6
x1 = 0.5	472	355	285	141.2	–	–	38.2
